Results: patent publication US11584712B2, “Alkylamine-substituted perthiocarbamates as dual precursors to hydropersulfide and carbonyl sulfide” (The Johns Hopkins University, priority 2020, dated 2023)
“And” between values parts separate entries of the source, which are not always exact repeats. Equal values may be shown once. “Also recorded” adds a separate entry of the source.

Assays:
Format in all cases: physicochemical
[1] = COS release using membrane inlet mass spectrometry (MIMS); settings: for COS release (m/z=60 signal): precursor 50 μM, pH 7.4 phosphate buffer saline with DTPA, 37° C.
Method: (§1) COS was analyzed using a Hiden HPR-40 MIMS system with a sample cell and membrane probe that have been optimized to detect gases dissolved in aqueous solution as described previously. Cline et al., 2011. A stock solution of N-acetyl-cysteine (25 mM) was prepared in DI water. RSSH precursor stock solutions (5 mM) were prepared in DMSO. These solutions were degassed by purging with nitrogen for 10 min before COS release analysis. Typically, 20 mL phosphate buffer solution (10 mM) was added to the sample cell, degassed and purged with a continuous flow of argon for 15 min. N-acetyl cysteine (200 μL, 25 mM) and RSSH precursor (200 μL, 5 mM) were then injected using a gas tight syringe and ion current at m/z 60 (COS^+) were collected for 2 h (source pressure was approximately 1×10^−7 to 5×10^−7 Torr).
as §1, with “(COS*)” for “(COS^+)”

[2] = RSSH generation in the presence of N-acetyl cysteine by UPLC-MS; settings: NAC 500 μM, 37° C.; for Byproduct % (yield of cyclic urea 2a-d): precursor 100 μM, pH 7.4 ammonium bicarbonate buffer with DTPA
Method: […] The resulting mixture was incubated at 37° C. An aliquot (200 μL) of reaction mixture was withdrawn at specified time points and quenched with 1% formic acid (200 μL). 3-Amino-benzoic acid (50 μM) was added to each sample as internal standard prior to UPLC-MS analysis. To quantify 2a-d generated from these precursors, a calibration curve for each individual cyclic urea with known concentrations was independently generated.
[…] The resulting mixture was incubated at 37° C. An aliquot ([…]) of reaction mixture was withdrawn at specified time points and quenched with 1% formic acid (200 μL). 3-amino-benzoic acid (50 μM) was added to each sample as internal standard prior to UPLC-MS analysis. To quantify 2a-d generated from these precursors, the calibration curve of each individual cyclic urea with known concentrations was independently generated.

[3] = Kinetics of RSSH release from precursors monitored by HPLC (HPE-IAM trapping); settings: for Hydropersulfide Yield (%): precursor 100 μM, HPE-IAM 5 mM, pH 7.4 phosphate buffer with DTPA
Method: (§2) Precursors 7a-d were dissolved in DMSO to afford 10 mM stock solutions. HPE-IAM was dissolved in DMSO to obtain a 100 mM stock solution. […] This solution was pre-incubated for 10 min at 37° C. and then precursor 7a-d (30 μL, 10 mM) were independently added into the mixture. The resulting solution was incubated at 37° C. At different time points, an aliquot of 200 μL was taken and quenched with 200 μL […] solution. These samples were stored at 0° C. until HPLC analysis was performed. The sample (20 μL) was injected into a high-performance liquid chromatography (HPLC) equipped with Phenomenex C-18 reverse phase column (250 mm×4.6 mm, 5 μm). HPLC Method: mobile phase A (H2O) and mobile phase B (ACN), flow rate: 1 mL/min, run time: 20 min, the gradient elution method: 10% to 40% B from 0 to 12 min, 40% to 80% B from 12 to 20 min. The elution was monitored by a UV detector at 275 nm. A calibration curve was generated using RSS-HPE-AM 9 to quantify RSSH generation from 7a-d.
as §2, with “by a variable UV detector” for “by a UV detector”

Row | Molecule | COS release (m/z=60 signal) ([1]; NAC 0.25 mM (5 equiv.)) | Byproduct % (yield of cyclic urea 2a-d) [2] | Hydropersulfide Yield (%) ([3]; 37° C.) | COS release (m/z=60 signal) ([1]; without NAC) | rate constant k of RSSH release ([3]; pH 6.0) [min⁻¹] | first-order rate constant k of RSSH release (RSS-HPE-AM 9 generation) ([3]; pH 7.4 phosphate buffer, HPE-IAM, 37° C., HPLC) | rate constant k of RSSH release ([3]; pH 8.0) [min⁻¹] | COS release in the presence of GSH compared with NAC ([1]; pH 7.4, GSH) | RSSH release under acidic conditions ([2]; 7b 100 μM, pH 6.0 ammonium acetate buffer 50 mM, 12 h)
1 | 3-(((3-acetamido-4-methoxy-2-methyl-4-oxobutan-2-yl)disulfannecarbonyl)(methyl)amino)-N-methylpropan-1-aminium [Precursor 7c] | produce mainly COS | 19.2 ± 0.5% | 90% and 90 ± 1% |  |  |  |  |  | 
2 | CNCCN(C)C(=O)SSC(C)(C)C(NC(C)=O)C(=O)OC (stereo not drawn) [Precursor 7a, 2-(((3-acetamido-4-methoxy-2-methyl-4-oxobutan-2-yl)disulfannecarbonyl)(methyl)amino)-N-methylethan-1-aminium] | small additional increase | 87% and 87 ± 1% | 89% and 89 ± 3% | very small increase | 0.031 | 0.505 min⁻¹ and 0.505 ± 0.019 min⁻¹ | 2.58 |  | 
3 | COC(=O)C(NC(C)=O)C(C)(C)SSC(=O)N(C)CCN (stereo not drawn) [Precursor 7b, 2-(((3-acetamido-4-methoxy-2-methyl-4-oxobutan-2-yl)disulfannecarbonyl)(methyl)amino)ethan-1-aminium] | increased production of COS | 58% and 58 ± 0.7% | 94 ± 1% |  |  |  |  | slightly higher/faster COS release | still observed, albeit at a slower rate; also recorded: slow RSSH release under acidic conditions
